“And” between values parts separate entries of the source, which are not always exact repeats. Identical values can stand only once.
Columns and labels:
porcine pepsin = biological target: T1, porcine pepsin (Sus scrofa, UniProt P00791); assay: Peptide stability in simulated gastric fluid (SGF); format: in vitro ADME; conditions: pig, simulated gi fluid; 8 h, 37 °C, pH 1.2; read-out: Proteolytic stability: SGF (8 h) % remaining
T1 construct: 0.32 g of porcine pepsin (Sigma-Aldrich, P7125) was dissolved under gentle agitation; purchased Sigma-Aldrich P7125
T1 sequence (P00791 60-385): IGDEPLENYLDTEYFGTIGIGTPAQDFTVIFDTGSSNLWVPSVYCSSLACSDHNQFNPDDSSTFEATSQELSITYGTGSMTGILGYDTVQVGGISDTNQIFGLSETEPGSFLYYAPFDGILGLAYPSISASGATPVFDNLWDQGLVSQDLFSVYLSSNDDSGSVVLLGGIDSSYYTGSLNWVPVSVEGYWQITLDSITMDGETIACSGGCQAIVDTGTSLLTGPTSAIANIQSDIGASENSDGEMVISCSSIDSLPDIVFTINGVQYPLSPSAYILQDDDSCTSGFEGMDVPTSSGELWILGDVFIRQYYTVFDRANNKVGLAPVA
Outline: (§1)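 Peptide from a 1 mM DMSO stock was added to fluid pre-warmed at 37 °C. SGF was pH 1.2 NaCl with porcine pepsin (0.32 g per 100 ml), and SIF was pH 6.8 potassium phosphate with porcine pancreatin (1 g per 100 ml). Supernatant peptide was quantified by LC–MS, with residual expressed as T1/T0.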

[1] = Metabolic stability in rat liver microsomes (RLMs); conditions: for TIC value of compound, metabolic stability RLM: replicates R1-R3; for microsomal CLint / half-life: rat, microsomes
Protocol: Metabolic stability was measured by incubating the peptides (10 μM) with RLMs. Peptides to test were dissolved in DMSO (4 mM), and 1 μl of the resulting solution was added to 365 μl of 0.1 M sodium phosphate buffer (pH 7.4). The solution was pre-warmed at 37 °C for 5 min before starting the reaction by addition of 24 μl of NADPH cofactor solution (22 mM) and 11 μl of RLMs (20 mg ml^−1 protein concentration; Thermo Fisher Scientific, RTMCPL). […] Samples were vortexed, sonicated for 5 min and centrifuged at 16,000g for 10 min. Supernatant was analyzed by LC–MS to quantify the disappearance of the compound and formation of degradation products.

rat α-thrombin = biological target: T2, rat α-thrombin (Rattus norvegicus, UniProt P18292); assay: Protease inhibition, Ki for rat α-thrombin (fluorogenic substrate Z-Gly-Gly-Arg-AMC); format: biochemical; conditions: for slope normalized to DMSO, rat alpha thrombin inhibition: replicates R1-R3
T2 construct: rat α-thrombin (Molecular Innovations) were used at final concentrations of 2 nM and 3 nM; purchased Molecular Innovations
Outline: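 Inhibition was measured as AMC fluorescence from 50 μM substrate, monitored for 30 min at 25 °C, relative to a peptide-free control. Human and rat enzymes were present at 2 nM and 3 nM final, respectively, in 50 mM Tris-HCl pH 7.4, 150 mM NaCl, 10 mM MgCl2, 1 mM CaCl2. Ki derives from fitted IC50 via Cheng–Prusoff.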

[2] = Peptide stability in simulated intestinal fluid (SIF); format: in vitro ADME, porcine; conditions: pig, simulated gi fluid; 8 h, 37 °C, pH 6.8; read-out: Proteolytic stability: SIF (8 h) % remaining
Outline: as §1

O=C1C[C@H]2CCCN2C(=O)[C@H](Cc2ccccc2)NC(=O)[C@@H](NC(=O)c2ccc(Cl)cc2)CCC=CCCCCN1 (mixture of isomers) [peptide 46]
remaining at 8 h (porcine pepsin): 96 ± 12%
TIC value of compound, metabolic stability RLM ([1]; 0 min): 14110188 (2×) and 12352514
TIC value of compound, metabolic stability RLM ([1]; 5 min): 13677902 and 11194388 and 11188088
TIC value of compound, metabolic stability RLM ([1]; 15 min): 10674204 and 7516980 and 9028625
TIC value of compound, metabolic stability RLM ([1]; 30 min): 7710068 and 5736371 and 6256299
TIC value of compound, metabolic stability RLM ([1]; 60 min): 3465219 and 2801334 and 3774480
CL, RLM ([1]; individual replicates R1-R3): 41.9492 ul/min/mg protein and 42.0127 ul/min/mg protein
Half Life, RLM ([1]; individual replicates R1-R3): 33.04 min and 32.99 min
microsomal CLint ([1]; CL, RLM, individual replicates R1-R3): 41.5 µL/min/mg
half-life ([1]; Half Life, RLM, individual replicates R1-R3): 33.4 min
microsomal CLint ([1]; Metabolic stability: RLM CL (ul/min/mg), RLMs, mean and SD, three measurements): 43 ± 1 µL/min/mg
half-life ([1]; pH 7.4, Metabolic stability: Half life T1/2 (min), RLMs, mean and SD, three measurements): 33 ± 1 min
IC50 (rat α-thrombin; individual replicates R1-R3, read-out: IC50, rat alpha thrombin inhibition): 18.6 nM and 18.8 nM and 18.2 nM
Ki (rat α-thrombin; individual replicates R1-R3, read-out: Ki, rat alpha thrombin inhibition): 10.3 nM and 10.4 nM and 10.1 nM
slope normalized to DMSO, rat alpha thrombin inhibition (rat α-thrombin; peptide 1.00E+02 uM): 8.3 and 7.3 and 7.2
slope normalized to DMSO, rat alpha thrombin inhibition (rat α-thrombin; peptide 1.19E-05 uM): 99.4 and 100.3 and 100.6
slope normalized to DMSO, rat alpha thrombin inhibition (rat α-thrombin; peptide 1.22E-02 uM): 60.3 and 60.4 and 59.6
slope normalized to DMSO, rat alpha thrombin inhibition (rat α-thrombin; peptide 1.25E+01 uM): 5.7 and 8.0 and 8.3
slope normalized to DMSO, rat alpha thrombin inhibition (rat α-thrombin; peptide 1.53E-03 uM): 88.8 and 87.9 and 87.4
slope normalized to DMSO, rat alpha thrombin inhibition (rat α-thrombin; peptide 1.56E+00 uM): 10.8 and 10.2 and 9.8
slope normalized to DMSO, rat alpha thrombin inhibition (rat α-thrombin; peptide 1.91E-04 uM): 94.6 and 95.0 and 96.1
slope normalized to DMSO, rat alpha thrombin inhibition (rat α-thrombin; peptide 1.95E-01 uM): 21.1 and 20.0 and 19.8
slope normalized to DMSO, rat alpha thrombin inhibition (rat α-thrombin; peptide 2.38E-05 uM): 96.3 and 97.7 and 98.1
slope normalized to DMSO, rat alpha thrombin inhibition (rat α-thrombin; peptide 2.44E-02 uM): 48.7 and 49.3 and 48.8
slope normalized to DMSO, rat alpha thrombin inhibition (rat α-thrombin; peptide 2.50E+01 uM): 12.0 and 7.7 and 6.9
slope normalized to DMSO, rat alpha thrombin inhibition (rat α-thrombin; peptide 3.05E-03 uM): 80.9 and 81.1 and 81.9
slope normalized to DMSO, rat alpha thrombin inhibition (rat α-thrombin; peptide 3.12E+00 uM): 9.6 and 9.4 and 8.9
slope normalized to DMSO, rat alpha thrombin inhibition (rat α-thrombin; peptide 3.81E-04 uM): 92.9 and 94.7 and 94.0
slope normalized to DMSO, rat alpha thrombin inhibition (rat α-thrombin; peptide 3.91E-01 uM): 15.0 and 14.0 and 13.6
slope normalized to DMSO, rat alpha thrombin inhibition (rat α-thrombin; peptide 4.77E-05 uM): 95.4 and 96.4 and 96.6
slope normalized to DMSO, rat alpha thrombin inhibition (rat α-thrombin; peptide 4.88E-02 uM): 33.7 and 33.6 and 33.1
slope normalized to DMSO, rat alpha thrombin inhibition (rat α-thrombin; peptide 5.00E+01 uM): 7.6 and 7.2 and 7.4
slope normalized to DMSO, rat alpha thrombin inhibition (rat α-thrombin; peptide 6.10E-03 uM): 72.8 and 73.4 and 73.0
slope normalized to DMSO, rat alpha thrombin inhibition (rat α-thrombin; peptide 6.25E+00 uM): 10.1 and 8.5 and 8.3
slope normalized to DMSO, rat alpha thrombin inhibition (rat α-thrombin; peptide 7.63E-04 uM): 91.2 and 92.2 and 91.3
slope normalized to DMSO, rat alpha thrombin inhibition (rat α-thrombin; peptide 7.81E-01 uM): 13.0 and 11.7 and 11.5
slope normalized to DMSO, rat alpha thrombin inhibition (rat α-thrombin; peptide 9.54E-05 uM): 95.8 and 95.1 and 95.6
slope normalized to DMSO, rat alpha thrombin inhibition (rat α-thrombin; peptide 9.77E-02 uM): 26.6 and 25.4 and 25.1
remaining at 8 h [2]: 93 ± 12%
